# Data: ChEMBL document CHEMBL1201862, “PubChem BioAssay data set” (2004)
# Calls of active or inactive are those of the source.
# Tests used:
# [1] = HeLa cell cytotoxicity, dose response, cytotoxicity control for MgcRacGAP inhibitor project (AID 624300); type: functional
# [2] = target: T1, Rac GTPase-activating protein 1 (Homo sapiens, UniProt Q9H0H5); test: MgcRacGAP GTPase-activating activity inhibitors, confirmation, biochemical, ADP Hunter fluorescence, primary and confirmatory (AID 624330); type: functional
# T1 sequence (Q9H0H5 whole entry): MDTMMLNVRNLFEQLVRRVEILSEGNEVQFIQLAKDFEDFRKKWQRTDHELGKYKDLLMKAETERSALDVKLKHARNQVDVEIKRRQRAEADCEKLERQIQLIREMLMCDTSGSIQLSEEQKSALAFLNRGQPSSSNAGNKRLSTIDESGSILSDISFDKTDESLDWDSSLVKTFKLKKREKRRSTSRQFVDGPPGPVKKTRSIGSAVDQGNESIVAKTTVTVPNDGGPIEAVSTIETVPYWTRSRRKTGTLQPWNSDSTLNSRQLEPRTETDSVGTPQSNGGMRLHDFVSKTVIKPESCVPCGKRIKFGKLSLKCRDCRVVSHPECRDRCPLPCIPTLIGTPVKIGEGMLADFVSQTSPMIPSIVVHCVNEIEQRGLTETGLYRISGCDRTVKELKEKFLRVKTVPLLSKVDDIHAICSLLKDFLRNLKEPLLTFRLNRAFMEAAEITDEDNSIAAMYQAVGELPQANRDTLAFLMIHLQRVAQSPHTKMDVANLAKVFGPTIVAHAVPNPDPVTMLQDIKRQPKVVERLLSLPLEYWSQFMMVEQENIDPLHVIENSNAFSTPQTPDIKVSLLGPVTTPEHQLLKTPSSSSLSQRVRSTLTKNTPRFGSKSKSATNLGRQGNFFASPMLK
# [3] = target: T2, Oxysterols receptor LXR-beta (Homo sapiens, UniProt P55055); type: functional, cell-based;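 also: agonist activity at LXR measured by a cell-based luminescence readout across a dose range, run as a counterscreen for daf-12 agonists; HEK293 cells with Gal4-LXR fusion and GAL4-driven luciferase reporter; potency for activation of Gal4-LXR reporter so compounds are agonists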
# T2 sequence (P55055 whole entry): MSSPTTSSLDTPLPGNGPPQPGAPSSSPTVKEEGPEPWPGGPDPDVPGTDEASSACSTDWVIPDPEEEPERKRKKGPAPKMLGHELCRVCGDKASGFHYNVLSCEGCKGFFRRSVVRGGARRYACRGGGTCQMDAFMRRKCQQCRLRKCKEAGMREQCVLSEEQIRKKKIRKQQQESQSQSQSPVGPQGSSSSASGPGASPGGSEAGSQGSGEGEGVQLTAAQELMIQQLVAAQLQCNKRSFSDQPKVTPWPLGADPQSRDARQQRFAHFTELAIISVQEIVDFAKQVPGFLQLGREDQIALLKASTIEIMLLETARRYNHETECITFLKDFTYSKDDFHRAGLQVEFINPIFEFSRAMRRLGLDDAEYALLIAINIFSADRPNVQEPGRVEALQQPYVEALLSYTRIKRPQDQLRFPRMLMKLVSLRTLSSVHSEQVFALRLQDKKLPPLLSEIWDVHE
# [4] = inhibitors of intracellular T. cruzi replication, confirmation, NIH3T3 host cells, beta-gal luminescence (AID 2044); type: functional, cell-based;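 also: intracellular parasites grown in NIH/3T3 mouse fibroblasts as host cells; luminescent beta-galactosidase reporter signal from transgenic T. cruzi replicating inside host cells; inhibitors lower the luminescence signal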
# [5] = cytotoxicity toward NIH3T3 fibroblasts, dose response, counter-screen, cell-based, ATP luminescence, mouse fibroblasts (AID 2010); type: functional;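 also: cells exposed to compound for about 90 hours before reading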
# [6] = NIH-3T3 fibroblast cytotoxicity, dose response, cytotoxicity control, cell-based, fluorescence, Alamar Blue, secondary assay (AID 2327); type: functional;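 also: NIH-3T3 mouse fibroblasts cultured with fluconazole at 8 µg/mL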
# [7] = C. albicans growth with fluconazole, confirmation, fluorescence, retest (AID 2467); type: functional, cell-based
# [8] = target: T3, Trace amine-associated receptor 1 (Homo sapiens, UniProt Q96RJ0); test: Fluorescence-based cell-based high throughput dose response assay to identify agonists of the human trace amine associated receptor 1 (TAAR1).; type: functional
# T3 sequence (Q96RJ0 whole entry): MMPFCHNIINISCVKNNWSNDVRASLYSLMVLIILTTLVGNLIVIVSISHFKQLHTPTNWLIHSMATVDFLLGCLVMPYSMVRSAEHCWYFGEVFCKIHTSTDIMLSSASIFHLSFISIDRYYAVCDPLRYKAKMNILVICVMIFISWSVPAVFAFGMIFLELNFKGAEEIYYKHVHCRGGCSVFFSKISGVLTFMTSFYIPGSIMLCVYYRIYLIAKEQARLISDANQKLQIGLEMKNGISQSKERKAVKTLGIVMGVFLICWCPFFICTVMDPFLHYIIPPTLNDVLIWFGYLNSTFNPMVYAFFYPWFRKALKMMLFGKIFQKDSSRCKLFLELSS
# [9] = cells; type: functional, cell-based
# [10] = target: T3, Trace amine-associated receptor 1; test: Counterscreen for agonists of the human trace amine associated receptor 1 (hTAAR1): Fluorescence-based cell-based high throughput dose response assay to identify hTAAR1 agonist that also desensitize TAAR1 receptor response.; type: functional
# [11] = cells; type: functional, cell-based; remark: listed apart in the source
# [12] = target: Large T antigen (Simian virus 40, UniProt P03070); type: functional, Betapolyomavirus macacae;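 also: Confirmatory-stage PubChem screen for compounds that inhibit SV40 T antigen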
# Chain of Large T antigen (P03070 whole entry): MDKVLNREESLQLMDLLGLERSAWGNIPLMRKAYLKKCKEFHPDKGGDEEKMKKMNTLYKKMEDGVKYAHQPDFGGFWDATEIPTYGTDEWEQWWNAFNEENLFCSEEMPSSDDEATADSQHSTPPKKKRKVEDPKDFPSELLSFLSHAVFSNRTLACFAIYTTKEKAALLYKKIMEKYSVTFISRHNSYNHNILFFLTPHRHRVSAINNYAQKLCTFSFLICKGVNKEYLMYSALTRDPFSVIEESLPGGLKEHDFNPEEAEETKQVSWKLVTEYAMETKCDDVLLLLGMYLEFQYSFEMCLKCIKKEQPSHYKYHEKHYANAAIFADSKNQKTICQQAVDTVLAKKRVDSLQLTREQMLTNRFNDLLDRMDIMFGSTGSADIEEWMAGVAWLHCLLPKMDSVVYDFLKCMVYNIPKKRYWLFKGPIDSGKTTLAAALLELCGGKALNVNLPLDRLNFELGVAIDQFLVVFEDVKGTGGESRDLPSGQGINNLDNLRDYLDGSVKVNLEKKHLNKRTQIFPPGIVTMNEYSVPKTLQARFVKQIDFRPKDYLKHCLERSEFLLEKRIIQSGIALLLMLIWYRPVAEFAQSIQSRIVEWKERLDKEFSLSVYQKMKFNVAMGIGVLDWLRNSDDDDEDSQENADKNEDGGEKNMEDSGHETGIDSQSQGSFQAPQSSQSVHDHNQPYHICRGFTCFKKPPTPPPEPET
# [13] = target: T4, Leucine aminopeptidase (Plasmodium falciparum 3D7, UniProt Q8IL11); test: P. falciparum M17LAP inhibitors, primary screen, biochemical, fluorogenic H-Leu-NHMec substrate, 1536-well (AID 1619); type: functional
# T4 sequence (Q8IL11 whole entry): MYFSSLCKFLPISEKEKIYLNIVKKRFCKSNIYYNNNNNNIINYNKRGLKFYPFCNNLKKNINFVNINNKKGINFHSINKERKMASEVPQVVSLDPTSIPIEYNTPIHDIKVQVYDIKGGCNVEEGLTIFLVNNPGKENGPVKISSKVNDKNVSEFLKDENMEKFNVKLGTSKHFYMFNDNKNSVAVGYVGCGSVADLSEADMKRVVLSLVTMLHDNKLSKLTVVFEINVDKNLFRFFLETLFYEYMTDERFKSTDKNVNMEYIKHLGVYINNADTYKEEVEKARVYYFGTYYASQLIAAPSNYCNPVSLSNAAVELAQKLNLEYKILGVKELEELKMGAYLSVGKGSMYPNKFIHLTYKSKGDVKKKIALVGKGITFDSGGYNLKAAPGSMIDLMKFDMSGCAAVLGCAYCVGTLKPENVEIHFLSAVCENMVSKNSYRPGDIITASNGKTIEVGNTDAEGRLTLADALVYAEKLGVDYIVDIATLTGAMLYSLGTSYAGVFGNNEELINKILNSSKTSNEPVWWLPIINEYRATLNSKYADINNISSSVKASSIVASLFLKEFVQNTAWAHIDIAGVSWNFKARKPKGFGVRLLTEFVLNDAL
# [14] = target: T5, DNA repair and recombination protein RAD54-like (Homo sapiens, UniProt Q92698); test: inhibitors of human RAD54 branch migration, confirmation, biochemical, fluorescence, cherry-picked samples, dose series (AID 651657); type: functional
# T5 sequence (Q92698 whole entry): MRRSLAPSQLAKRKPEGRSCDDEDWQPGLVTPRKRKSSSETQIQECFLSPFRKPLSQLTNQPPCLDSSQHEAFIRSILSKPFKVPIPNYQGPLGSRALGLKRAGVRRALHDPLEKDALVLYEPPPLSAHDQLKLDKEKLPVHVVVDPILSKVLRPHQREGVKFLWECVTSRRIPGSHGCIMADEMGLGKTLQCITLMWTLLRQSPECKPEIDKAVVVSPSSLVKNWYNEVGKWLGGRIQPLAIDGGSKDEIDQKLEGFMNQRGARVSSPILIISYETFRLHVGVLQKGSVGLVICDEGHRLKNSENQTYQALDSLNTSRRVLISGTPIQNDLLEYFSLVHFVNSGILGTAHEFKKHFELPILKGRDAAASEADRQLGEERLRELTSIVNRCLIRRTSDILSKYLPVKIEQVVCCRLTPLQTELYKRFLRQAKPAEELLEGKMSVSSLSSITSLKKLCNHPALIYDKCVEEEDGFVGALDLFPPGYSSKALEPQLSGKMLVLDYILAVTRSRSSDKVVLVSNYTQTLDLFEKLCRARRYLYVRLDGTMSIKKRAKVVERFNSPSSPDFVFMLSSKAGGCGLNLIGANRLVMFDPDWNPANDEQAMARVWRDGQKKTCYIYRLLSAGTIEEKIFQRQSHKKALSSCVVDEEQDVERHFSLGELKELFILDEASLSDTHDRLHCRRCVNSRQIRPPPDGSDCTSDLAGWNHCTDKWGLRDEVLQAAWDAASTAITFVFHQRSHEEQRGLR
# [15] = target: T6, Sentrin-specific protease 8 (Homo sapiens, UniProt Q96LD8); type: functional
# T6 sequence (Q96LD8 whole entry): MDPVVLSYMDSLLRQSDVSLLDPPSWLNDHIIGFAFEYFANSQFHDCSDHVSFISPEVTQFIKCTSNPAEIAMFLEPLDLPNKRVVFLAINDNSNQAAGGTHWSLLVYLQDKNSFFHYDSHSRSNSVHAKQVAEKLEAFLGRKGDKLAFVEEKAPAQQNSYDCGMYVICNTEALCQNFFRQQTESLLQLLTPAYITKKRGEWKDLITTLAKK
# [16] = target: T6, Sentrin-specific protease 8; type: functional; remark: listed apart in the source
# [17] = target: T7, Heat shock factor protein 1 (Mus musculus, UniProt P38532); test: HSF1 potentiators in luciferase reporter cells, confirmation, cell-based, NIH3T3, luminescence, dose retest (AID 435004); type: functional;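 also: stress induced by proteasome inhibitor MG132 added 30 min after compound; luciferase reporter driven by HSF1 response element in NIH3T3 cells; actives raise luminescence as potentiators of the MG132 stress response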
# T7 sequence (P38532 whole entry): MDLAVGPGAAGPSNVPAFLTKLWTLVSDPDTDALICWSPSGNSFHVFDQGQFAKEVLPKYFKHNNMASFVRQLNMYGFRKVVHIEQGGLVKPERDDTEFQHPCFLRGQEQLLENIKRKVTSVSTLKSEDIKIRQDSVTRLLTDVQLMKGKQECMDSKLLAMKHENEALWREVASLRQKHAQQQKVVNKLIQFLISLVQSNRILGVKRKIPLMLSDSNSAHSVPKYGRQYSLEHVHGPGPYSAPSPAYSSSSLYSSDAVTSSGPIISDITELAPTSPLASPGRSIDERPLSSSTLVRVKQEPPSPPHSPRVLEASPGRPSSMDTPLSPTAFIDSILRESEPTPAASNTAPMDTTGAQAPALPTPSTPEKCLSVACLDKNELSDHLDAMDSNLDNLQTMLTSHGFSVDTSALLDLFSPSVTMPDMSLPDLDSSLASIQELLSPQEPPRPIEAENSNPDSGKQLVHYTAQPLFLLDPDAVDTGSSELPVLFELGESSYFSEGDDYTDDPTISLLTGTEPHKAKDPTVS
# [18] = target: T8, DNA repair protein RAD52 homolog (Homo sapiens, UniProt P43351); type: functional, biochemical
# T8 sequence (P43351 whole entry): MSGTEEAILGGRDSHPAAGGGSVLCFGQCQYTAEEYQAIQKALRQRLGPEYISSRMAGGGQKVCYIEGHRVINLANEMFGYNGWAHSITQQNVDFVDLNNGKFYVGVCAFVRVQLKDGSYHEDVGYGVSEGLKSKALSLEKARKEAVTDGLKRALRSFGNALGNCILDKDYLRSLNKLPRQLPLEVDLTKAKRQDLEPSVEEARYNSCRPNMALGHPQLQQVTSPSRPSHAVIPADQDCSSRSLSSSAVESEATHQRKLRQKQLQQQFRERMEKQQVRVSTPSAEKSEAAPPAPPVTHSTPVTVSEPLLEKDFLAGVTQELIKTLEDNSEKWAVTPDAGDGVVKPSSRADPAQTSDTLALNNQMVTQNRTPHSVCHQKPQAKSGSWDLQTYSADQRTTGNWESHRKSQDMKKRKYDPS
smiles,measurement,setting,value
OC(CON=C1c2ccccc2-c2ccccc21)CN1CCNCC1 (centres undefined),CC50,[1],100 µM (active)
same,IC50,[2],62.7 µM (active)
CCCSc1nsc(NC(=O)CC)n1,EC50,[3],> 67.5 µM (inactive)
N=C(NOC(=O)N1c2ccccc2Sc2ccccc21)c1ccccc1,CC50,[1],100 µM (active)
same,EC50,[4],0.814 µM (active)
same,EC50,[5],> 60 µM (not active)
same,EC50,[6],> 160 µM (inactive)
same,EC50,[7],1.22 µM (active)
Cc1cccn2c(CNCC3OCCc4ccccc43)c(C(=O)N3CCCCC3)nc12 (centres undefined),EC50,[8],4.38 µM (active)
same,IC50,[9],> 29.9 µM (inactive)
same,IC50,[10],4.82 µM (active)
same,EC50,[11],> 29.9 µM (inactive)
Cc1ccc(-c2onc3ccc(C(=O)O)cc23)cc1,EC50,[3],> 67.6 µM (inactive)
Cc1cc(C(=O)CSc2ncccn2)c(C)n1Cc1ccco1,EC50,[3],> 67.5 µM (inactive)
COc1ccc(Nc2cc(C)nc(N3CCOCC3)n2)cc1,EC50,[8],3.33 µM (active)
same,IC50,[9],> 29.9 µM (inactive)
same,IC50,[10],> 29.9 µM (inactive)
same,EC50,[11],> 29.9 µM (inactive)
CC(C)C1N=C2c3ccccc3N=C(SCC(=O)c3ccc(O)c(O)c3)N2C1=O (centres undefined),IC50,[12],21.3 µM (active)
same,CC50,[1],100 µM (active)
same,IC50,[13],17.7 µM (active)
same,IC50,[2],26.1 µM (active)
c1cc2c3c(cccc3c1)C(N1CCCCC1)=N2,AC50,[14],34 µM (active)
Cc1cc(C)n(C(CC(=O)N2CCc3ccccc3C2)C(=O)O)n1 (centres undefined),IC50,[15],> 100 µM (inactive)
same,IC50,[16],16.5 µM (active)
same,EC50,[8],1.06 µM (active)
same,IC50,[9],> 29.9 µM (inactive)
same,IC50,[10],4.32 µM (active)
same,EC50,[11],> 29.9 µM (inactive)
Cc1n[nH]c(-c2ccc(O)c(C)c2O)c1-c1cnn(-c2ccccc2)c1,CC50,[1],98.9 µM (active)
same,EC50,[17],> 260 µM (inactive)
same,EC50,[6],> 160 µM (inconclusive)
same,EC50,[7],> 38 µM (not active)
same,IC50,[2],85.8 µM (active)
CN(C)CCCNc1nc2cc(-c3cccc(Cl)c3)sc2c(=O)n1C,AC50,[18],4.7 µM (active)
same,AC50,[14],32.9 µM (active)
CCCCCCCCN1C(=O)[C@H](CC(=O)NCCc2ccccc2OC)C[C@@]2(C(=O)OC)CCCCC=C12,EC50,[8],7.05 µM (active)
same,IC50,[9],> 29.9 µM (inactive)
same,IC50,[10],9.43 µM (active)
same,EC50,[11],> 29.9 µM (inactive)
CC(Nc1ccnc2cc(Cl)ccc12)c1ccc(S(N)(=O)=O)cc1 (centres undefined),EC50,[8],14.9 µM (inactive)
same,IC50,[9],> 29.9 µM (inactive)
same,IC50,[10],> 29.9 µM (inactive)
same,EC50,[11],> 29.9 µM (inactive)
